Measurements from publication PMC10223284, “Category-Based Toxicokinetic Evaluations of Data-Poor Per- and Polyfluoroalkyl Substances (PFAS) using Gas Chromatography Coupled with Mass Spectrometry” (Toxics, 2023).
Where “and” joins values, the source holds several entries; their conditions need not be identical. Equal entries are not always repeated.

Assays:
[1] = Abiotic loss in negative controls of the hepatocyte clearance assay (cell-free media, metabolically inactivated hepatocytes); type: in vitro ADME; details: flag for stability failure in hepatocyte clearance assay controls (1 or Fst = fail, 0 = pass)
Protocol: The hepatic metabolic stability assay measures the loss of a parent compound over time in a substrate-depletion approach. Briefly, hepatocyte suspensions, after a viability assessment, were diluted in complete William’s medium E (containing dexamethasone and cell maintenance cocktail B) prior to addition to 96-well polypropylene plates containing an equal volume of media spiked with the test compound (1 μM assay concentration; assay cell density = 50,000 cells/100 μL) and maintained at 37 °C with shaking. At each time point, relevant plates were crashed with an equal volume of ice-cold acetonitrile, centrifuged, and supernatant transferred to a new plate prior to storage at <−70 °C until quantitative analysis. Controls, run in parallel, included cell-free (i.e., media only) and metabolically inactivated hepatocytes to evaluate abiotic chemical stability in the aqueous media matrix with and without cellular protein. In preliminary runs, these controls were run at T0 and T240 only. If significant instability was noted, the hepatocyte clearance assay was rerun, including cell-free samples at each time point and metabolically inactivated hepatocytes at selected time points.
Negative controls, including media only and metabolically inactivated hepatocyte controls, were included to monitor abiotic loss (i.e., background clearance) during the assay. Where significant compound loss occurred using the analysis described above, background clearance rates were calculated and used to background-adjust hepatic metabolic clearance rates. Where chemicals were cleared prior to the end of the analysis, at 240 min (T240), the corresponding negative control timepoint was used for background subtraction. Any chemicals displaying a 50% or more abiotic loss at T120 were deemed unstable and were excluded from further analyses.

[2] = tested on: human plasma; assay: Chemical stability in plasma over the UC assay time course (T5hr/T1hr); details: for % remaining_PPB: chemical remaining in plasma over the PPB assay time course, NS = no significant loss; for PPB_Stab_Fail: flag for stability failure in the plasma protein binding assay (1 = fail, 0 = pass); for Time 1 hr / Time 1 hr, Run-specific Avg: amount measured in plasma sample at 1 hr; for Time 1 hr / Time 5 hr: replicates A, B, C; for Time 1 hr / Time 1 hr, Run-specific Avg / Time 5 hr / Time 5 hr, Run-specific Avg: unit not given; for Time 1 hr, Run-specific Avg / Time 5 hr, Run-specific Avg: run average; for Time 5 hr / Time 5 hr, Run-specific Avg: amount measured in plasma sample at 5 hr; for Fstable.Med: median fraction stable in plasma, UC assay Level4
[3] = tested on: human plasma; assay: Ultracentrifugation (UC) plasma protein binding assay, fraction unbound in plasma (fup); details: for Aqueous Fraction / Aqueous Fraction, Run-specific Avg: amount measured in aqueous fraction after ultracentrifugation, unit not given; for Aqueous Fraction: replicates A, B, C; for Aqueous Fraction, Run-specific Avg: run average; for Mean fu: fraction unbound in human plasma, ultracentrifugation, some values based on eLOQ; for Fup.Med: median fraction unbound in plasma; for Fup.Med / Fup.point: UC assay Level4; for Fup.point: point estimate of fraction unbound in plasma
[4] = mean T5hr/T1hr ratio in plasma over all replicates/runs
[5] = mean fraction unbound in human plasma over all UC replicates/runs
[6] = average of one UC run (run date in line above)
[7] = mean over all UC runs and replicates, human plasma

Row | SMILES | Hep_Stab_Fail [1] | % remaining_PPB [2] [%] | PPB_Stab_Fail [2] | Time 1 hr [2] | Time 1 hr, Run-specific Avg [2] | Time 5 hr [2] | Time 5 hr, Run-specific Avg [2] | Stability (T5hr/ T1hr), Run-specific Avg ([2]; average of one UC run) | Mean Stability [2, 4] | Fstable.Med [2] | Aqueous Fraction [3] | Aqueous Fraction, Run-specific Avg [3] | Fraction Unbound (fu), Run-specific Avg ([3]; average of one UC run) | Mean fu [3] | Fup.Med [3] | Fup.point [3] | further results
1 | CC(C)(C)C(=O)CC(=O)C(F)(F)C(F)(F)C(F)(F)F [(Heptafluorobutanoyl)pivaloylmethane] | 1 | – | – | – | – | – | – | – | – | – | – | – | – | – | – | – | –
2 | FC(F)(F)C(F)(F)C(F)(F)CC1CO1 (stereo not drawn) [1H,1H-Heptafluorobutyl epoxide] | 1 | 0 | 1 | – | – | – | – | – | – | – | – | – | – | – | – | – | –
3 | CO[Si](C)(CCC(F)(F)C(F)(F)C(F)(F)C(F)(F)C(F)(F)C(F)(F)F)OC [DTXSID40235137] | 1 | 0 | 1 | – | – | – | – | – | – | – | – | – | – | – | – | – | –
4 | NCC(F)(F)C(F)(F)C(F)(F)C(F)(F)C(F)(F)C(F)(F)C(F)(F)F [1H,1H-Perfluorooctylamine] | Fst | 58 | 0 | 5598.62 and 5535.59 and 4647.69 | 5260.63 | 3087.52 and 3094.29 and 2839.44 | 3090.91 | 0.588 | 0.577 | 0.0977 | 245.64 and 173.583 and 303.476 | 240.90 | 0.08 | 0.105 | 0.605 | 0.345 | Mean Fu [3, 5]: 0.081
5 | FC(F)(F)C(F)(F)C(F)(F)C(F)(F)C(F)(F)C(F)(F)C(F)(F)I [1-Iodopentadecafluoroheptane] | 1 | 16 | 1 | – | – | – | – | – | – | 0.202 | – | – | – | – | 0.907 | – | –
6 | C=CC(=O)OCC(F)(F)C(F)(F)C(F)(F)C(F)(F)C(F)(F)C(F)(F)C(F)(F)F [1H,1H-Perfluorooctyl acrylate] | 1 | 6 | 1 | – | – | – | – | – | – | – | – | – | – | – | – | – | –
7 | NCC(F)(F)C(F)(F)C(F)(F)C(F)(F)C(F)(F)C(F)(F)C(F)(F)C(F)(F)F [1H,1H-Perfluorononylamine] | – | 60 | 0 | 12346.8 and 12130.3 and 11151.5 | 11876.18 | 7604.95 and 6828.46 and 6766.48 | 7216.71 | 0.608 | 0.598 | 0.177 | 414.774 and 241.353 and 265.963 | 307.36 | 0.0431 | 0.043 | 0.0402 | 0.0359 | –
8 | CN(C(=O)C(F)(F)C(F)(F)C(F)(F)F)[Si](C)(C)C [N-Methyl-N-trimethylsilylheptafluorobutyramide] | 1 | – | 0 | – | – | – | – | – | – | 0.274 | – | – | – | 0.5451 | 0.532 | 0.545 | Stability (T5hr/ T1hr), Run-specific Avg [2, 6]: 0.935; Mean Stability ([2]; mean T5hr/T1hr ratio over all replicates and runs, plasma): 0.935; Stability (T5hr/ T1hr), replicates A, B, C ([2]; single replicate of one UC run): 0.978 and 0.906 and 0.921; Fraction Unbound (fu), Run-specific Avg [3, 6]: 0.55; Mean Fu ([3]; mean fraction unbound over all replicates and runs, UC assay, human plasma): 0.545; Fraction Unbound (fu), replicates A, B, C ([3]; single replicate of one UC run (aqueous fraction / Time 5 hr)): 0.507 and 0.525 and 0.603
9 | C=CC(=O)OCC(F)(F)C(F)(F)C(F)(F)COC(=O)C=C [1H,1H,5H,5H-Perfluoro-1,5-pentanediol diacrylate] | 1 | 0 | 1 | – | – | – | – | – | – | 0.00466 | – | – | – | – | 7.62E-09 | 0.177 | –
10 | NC(=O)C(F)(F)C(F)(F)C(F)(F)C(F)(F)C(F)(F)C(F)(F)C(F)(F)F [Perfluorooctanamide] | 1 | – | 0 | – | – | – | – | – | – | 0.738 | – | – | – | 0.0282 | 0.0252 | 0.0263 | Mean Stability (T5hr/T1hr) [2, 7]: 0.838; Stability (T5hr/ T1hr), Run-specific Avg ([2]; run-specific average): 0.841; Mean Fu (fraction unbound) [3, 7]: 0.028; Fraction Unbound (fu), Run-specific Avg ([3]; run-specific average): 0.0266
11 | CC(O)C(F)(F)C(F)(F)F (stereo not drawn) [DTXSID70880134] | 1 | 0 | 1 | – | – | – | – | – | – | – | – | – | – | – | – | – | –
12 | OCC(F)(F)OC(F)(F)C(F)(F)OC(F)(F)C(F)(F)OC(F)(F)F [Fluorinated triethylene glycol monomethyl ether] | 1 | 0 | 1 | – | – | – | – | – | – | – | – | – | – | – | – | – | –
13 | OCCCCC(F)(F)C(F)(F)C(F)(F)C(F)(F)F [4:4 Fluorotelomer alcohol] | 1 | 100 | 0 | 11379.4 and 9453.92 and 9594.35 | 10142.56 | 9012.64 and 8012.91 and 8571.88 | 8512.77 | 0.839 | 0.850 | 0.181 | 460.145 and 470.255 and 706.065 | 545.49 | 0.064 | 0.0640 | 0.0608 | 0.0704 | –
14 | OCCC(F)(F)C(F)(F)C(F)(F)C(F)(F)C(F)(F)C(F)(F)C(F)(F)C(F)(F)F [8:2 Fluorotelomer alcohol] | – | 100 | 0 | 10349.3 (2×) and 9635.91 | 10111.53 | 7909.09 and 8525.8 and 8231.76 | 8217.44 | 0.813 | 0.814 | 0.162 | 192.869 and 61.5201 and 158.809 | 137.73 | 0.017 | 0.0170 | 0.0168 | 0.0243 | –
15 | C=CC(=O)OCC(F)(F)C(F)(F)C(F)(F)C(F)(F)COC(=O)C=C [DTXSID80379721] | 1 | 0 | 1 | – | – | – | – | – | – | – | – | – | – | – | – | – | –
16 | NCC(F)(F)C(F)(F)C(F)(F)C(F)(F)C(F)(F)C(F)(F)F [1H,1H-Perfluoroheptylamine] | – | 54 | 0 | 7913.09 and 7505.36 and 6518.71 | 7312.39 | 3934.26 and 4036.14 and 3821.62 | 3985.20 | 0.545 | 0.541 | 0.0946 | 488.915 and 403.165 and 617.709 | 503.26 | 0.13 | 0.129 | 0.129 | 0.121 | –
17 | FC(F)(F)C(F)(F)CNCC(F)(F)C(F)(F)F [Bis(1H,1H-perfluoropropyl)amine] | – | – | 0 | 11322.6 and 13421.7 and 13036.1 | 12593.46 | 11284.3 and 10114.7 and 8561.71 | 10699.45 | 0.850 | 0.799 | 0.999 | 403.75 and 491.531 and 501.978 | 465.75 | 0.05 | 0.0477 | 0.0412 | 0.0433 | Mean Fu [3, 5]: 0.048
18 | C=C(C)C(=O)OCCC(F)(F)C(F)(F)C(F)(F)C(F)(F)C(F)(F)C(F)(F)F [6:2 Fluorotelomer methacrylate] | – | 54 | 0 | – | – | – | – | – | – | 0.0566 | – | – | – | 0.21 | 0.102 | 0.0856 | –
19 | FC(F)(F)C(F)(F)C(F)(F)C(F)(F)C(F)(F)C(F)(F)CCS [DTXSID20379947] | – | 0 | 1 | – | – | – | – | – | – | – | – | – | – | – | – | – | –
